Values after ≈ are worked out from the molar mass of the structure shown.
Experiment: physchem
Details: water

solubility: 198 mM (≈ 26 mg/mL)
SMILES: O=C(O)[C@@H]1C[C@@H](O)CN1 [hydroxyproline]

— patent EP4374708A1, “NUTRITIONAL SUPPLEMENT PREPARATION” (Avea Life AG, priority 2022, dated 2024)
